Assay results: patent US20070238700A1, “N-PHENYL-1,1,1-TRIFLUOROMETHANESULFONAMIDE HYDRAZONE DERIVATIVE COMPOUNDS AND THEIR USAGE IN CONTROLLING PARASITES” (priority 2006, published 2007)
Like-named read-outs stand apart in the source and are kept apart here.

System: Ctenocephalides felis
Experimental: b) Ctenocephalides felis Adulticide Assay: C. felis Single Dose Screen
Mortality of fleas was the primary endpoint in the assay. Fleas were considered dead if they didn't move or were on their sides and unable to walk or right themselves. […] The concentration chosen (1.26 μg/cm^2) was higher than that known to kill 90% of cat fleas (LC90) using the reference compound, permethrin.
The test species was the cat flea (Ctenocephalides felis). The strain used was obtained from external suppliers as pupae and held in the laboratory under testing conditions until the adults had emerged. Fifteen (15) fleas were used in a minimum of four replicates against a single concentration level (approximately 60 fleas). The insects were selected to be in the adult life stage, aged between 3 and 7 days post emergence.
The compounds to be tested were supplied as solids and were prepared in acetone as described below prior to testing. Samples were stored in a refrigerator (5±1° C.) unless otherwise specified.
During the mortality testing, the temperature was maintained at 25±1° C. Humidity was maintained at 75±5%. The base (area=159 mm^2) of a 100 mL glass Erlenmeyer (conical) flask provided the treatment surface. Flasks were pretreated with Coatasil™ glass treatment to maximise bio-availability of test compounds by preventing them from binding to glass the surface. The base of the 100 mL Erlenmeyer flask was treated with 0.5 mL of test sample in acetone and gently swirled. This volume was sufficient to cover the base of the flask. Flasks were left to dry for 24 hours before flea exposure.
Adult cat fleas were placed into a sorting chamber, which allowed fleas to jump into the Erlenmeyer flasks. Fifteen (15) adult cat fleas were collected in each flask. The top of the flasks were then covered in Parafilm™ and small holes were made to allow gas exchange. A 0.5 mL volume of acetone as a solvent control was applied to the base of an Erlenmeyer flask and the testing proceeded in the same manner described above. Cat fleas in the treatment containers were held under testing conditions for 8, 24 and/or 48 hours. Mortality was recorded at 8, 24, 8 and 24, or 24 and 48 hours Pooled 8, 24, 8 and 24, and 24 and 48 hour mortality data were converted to percentages and are summarized by Table 21, below.

Row | Structure (SMILES) | C. felis Mortality (%) 8 h (8 h, data from laboratory 1) [%] | C. felis Mortality (%) 24 h (24 h, data from laboratory 1) [%] | other results
1 | Cn1nccc1-c1cc(Cl)ccc1NS(=O)(=O)C(F)(F)F (single isomer, unassigned) [Compound 93, N-[2-(1-methyl-1H-pyrazol-5-yl)-4-chlorophenyl]-trifluoromethanesulfonamide] | – | – | C. felis Mortality (%) 8 h (8 h): 5%; C. felis Mortality (%) 24 h (24 h): 9%
2 | CN(N=C(c1ccccc1)c1cc(Cl)ccc1NS(=O)(=O)C(F)(F)F)c1ccccc1 (single isomer, unassigned) [Compound 117] | 12 | 59 | –
3 | CN(N=C(c1ccccc1)c1cc(Cl)ccc1NS(=O)(=O)C(F)(F)F)c1ccccc1 (single isomer, unassigned) [Compound 118] | 6 | 27 | –
4 | CC(=NNc1ccccc1)c1cc(Cl)ccc1NS(=O)(=O)C(F)(F)F [Compound 12, N-[2-(1-phenylhydrazono)ethyl-4-chlorophenyl]-trifluoromethanesulfonamide] | – | – | C. felis Mortality (%) 8 h: 20^B %
5 | CC(=NN(C)c1ccc(Cl)cc1Cl)c1cc(Cl)ccc1N(C)S(=O)(=O)C(F)(F)F [Compound 29] | – | 0 | C. felis Mortality (%) 48 h (data from laboratory 1): 58%
6 | CCCN(N=C(C)c1cc(Cl)ccc1NS(=O)(=O)C(F)(F)F)c1ccc(Cl)cc1Cl [Compound 31] | – | 85 | C. felis Mortality (%) 48 h (data from laboratory 1): 100%
7 | CC(=NN(c1ccc(Cl)cc1Cl)C(C)C)c1cc(Cl)ccc1NS(=O)(=O)C(F)(F)F [Compound 32] | – | 41 | C. felis Mortality (%) 48 h (data from laboratory 1): 100%
8 | CC(=NN(C)c1ccccc1Cl)c1cc(Cl)ccc1N(C)S(=O)(=O)C(F)(F)F [Compound 40] | – | 0 | C. felis Mortality (%) 48 h (data from laboratory 1): 13%
9 | CCCN(N=C(C)c1cc(Cl)ccc1NS(=O)(=O)C(F)(F)F)c1ccccc1Cl [Compound 42] | – | 67 | C. felis Mortality (%) 48 h (data from laboratory 1): 100%
10 | CCCN(N=C(C)c1cc(Cl)ccc1NS(=O)(=O)C(F)(F)F)c1ccccc1F [Compound 45] | – | 27 | C. felis Mortality (%) 48 h (data from laboratory 1): 100%
11 | CC(=NN(c1ccccc1F)C(C)C)c1cc(Cl)ccc1NS(=O)(=O)C(F)(F)F [Compound 46] | 44 | 100 | –
12 | CC(=NN(c1ccc(Br)cc1)C(C)C)c1cc(Cl)ccc1NS(=O)(=O)C(F)(F)F [Compound 52] | 51 | 100 | –
13 | CC(=NNC(=O)c1ccc(Cl)cc1)c1cc(Cl)ccc1NS(=O)(=O)C(F)(F)F [Compound 57, N-[2-[1-(4-chlorobenzoyl)hydrazono]ethyl-4-chlorophenyl]-trifluoromethanesulfonamide] | – | – | C. felis Mortality (%) 8 h: 6%; C. felis Mortality (%) 24 h: 70%
14 | CC(=NNC(=O)c1ccccc1Cl)c1cc(Cl)ccc1NS(=O)(=O)C(F)(F)F [Compound 58] | 2 | 13 | –
15 | CC(=NNC(=O)c1ccc(Cl)cc1Cl)c1cc(Cl)ccc1NS(=O)(=O)C(F)(F)F [Compound 61] | 12 | 45 | –
16 | CC(=NN(C)c1ccc(F)cc1)c1cc(Cl)ccc1NS(=O)(=O)C(F)(F)F [Compound 64] | 1 | 50 | –
17 | CC(=NN(c1cc(Cl)cc(Cl)c1)C(C)C)c1cc(Cl)ccc1NS(=O)(=O)C(F)(F)F [Compound 67] | 20 | 85 | –
18 | CC(=NN(c1ccc(Cl)c(Cl)c1)C(C)C)c1cc(Cl)ccc1NS(=O)(=O)C(F)(F)F [Compound 68] | 18 | 73 | –
19 | CCN(N=C(C)c1cc(Cl)ccc1NS(=O)(=O)C(F)(F)F)c1cccc(Cl)c1Cl [Compound 69] | 39 | 92 | –
20 | COC(=O)NN=C(C)c1cc(Cl)ccc1NS(=O)(=O)C(F)(F)F [Compound 78, N-[2-[1-(methoxycarbonylhydrazono)ethyl]-4-chlorophenyl]-trifluoromethanesulfonamide] | – | – | C. felis Mortality (%) 8 h (8 h): 16%; C. felis Mortality (%) 24 h (24 h): 16%
21 | CCC(=NNC(=O)c1ccc(Cl)cc1Cl)c1cc(Cl)ccc1NS(=O)(=O)C(F)(F)F [Compound 79] | 14 | 92 | –
22 | CCC(=NNC(=O)c1ccccc1Cl)c1cc(Cl)ccc1NS(=O)(=O)C(F)(F)F [Compound 80] | 17 | 88 | –
23 | O=S(=O)(Nc1ccc(Cl)cc1C(=NN1CCCCC1)c1ccccc1)C(F)(F)F [Compound 83] | 15 | 17 | –

Row | Structure (SMILES) | C. felis Mortality (%) 8 h (8 h, data from laboratory 1) [%] | C. felis Mortality (%) 24 h (24 h, data from laboratory 1) [%] | other results
24 | O=S(=O)(Nc1ccc(Cl)cc1C(=NN1CCOCC1)c1ccccc1)C(F)(F)F [Compound 84] | 9 | 76 | –
25 | CCOC(=O)NN=C(C)c1cc(Cl)ccc1NS(=O)(=O)C(F)(F)F [Compound 85] | 3 | 12 | –
26 | CC(=NNC(=O)OC(C)(C)C)c1cc(Cl)ccc1NS(=O)(=O)C(F)(F)F [Compound 86] | 4 | 26 | –
27 | CCC(=NNC(=O)OC)c1cc(Cl)ccc1NS(=O)(=O)C(F)(F)F [Compound 87] | 7 | 12 | –
28 | CCOC(=O)NN=C(CC)c1cc(Cl)ccc1NS(=O)(=O)C(F)(F)F [Compound 88] | 6 | 25 | –
29 | CCC(=NNC(=O)OC(C)(C)C)c1cc(Cl)ccc1NS(=O)(=O)C(F)(F)F [Compound 89] | 6 | 43 | –
30 | CC(=NNC(=O)Nc1ccccc1)c1cc(Cl)ccc1NS(=O)(=O)C(F)(F)F [Compound 90, N-[2-[1-(4-phenyl)semicarbazono]ethyl-4-chlorophenyl]-trifluoromethanesulfonamide] | – | – | C. felis Mortality (%) 8 h: 3%; C. felis Mortality (%) 24 h: 18%
31 | CC(=NNC(=O)Nc1ccccc1Cl)c1cc(Cl)ccc1NS(=O)(=O)C(F)(F)F [Compound 91] | 10 | 10 | –
32 | CC(=NNC(=O)Nc1ccc(Cl)cc1)c1cc(Cl)ccc1NS(=O)(=O)C(F)(F)F [Compound 92] | 8 | 8 | –
33 | O=S(=O)(Nc1ccc(Cl)cc1-c1ccn(-c2ccccc2)n1)C(F)(F)F [Compound 94] | 6 | 8 | –
34 | O=S(=O)(Nc1ccc(Cl)cc1-c1cc[nH]n1)C(F)(F)F [Compound 95] | 25 | 83 | –
35 | CCN(N=C(C)c1cc(Cl)ccc1NS(=O)(=O)C(F)(F)F)c1ccc(C)cc1 [Compound 101] | 11 | 90 | –
36 | CC(=NN(c1ccc(C)cc1)C(C)C)c1cc(Cl)ccc1NS(=O)(=O)C(F)(F)F [Compound 102] | 3 | 90 | –
37 | CCCN(N=C(C)c1cc(Cl)ccc1NS(=O)(=O)C(F)(F)F)c1cccc(Cl)c1 [Compound 106] | 0 | 25 | –
38 | CC(=NN1CCCCCC1)c1cc(Cl)ccc1NS(=O)(=O)C(F)(F)F [Compound 107] | 2 | 23 | –
39 | O=S(=O)(Nc1ccc(Cl)cc1-c1ccnn1-c1ccc(Cl)cc1)C(F)(F)F [Compound 108, N-[2-(1-4′-chlorophenyl-1H-pyrazol-5-yl)-4-chlorophenyl]-trifluoromethanesulfonamide] | – | – | C. felis Mortality (%) 8 h: 0%; C. felis Mortality (%) 24 h: 64%
40 | COCN(c1ccc(Cl)cc1C(C)=NN(C)c1ccccc1)S(=O)(=O)C(F)(F)F [Compound 110] | 6 | 52 | –
41 | CC(=NN(C)c1ccccc1)c1cc(Cl)ccc1N(COC(=O)C(C)(C)C)S(=O)(=O)C(F)(F)F [Compound 111] | 14 | 32 | –
42 | CC(=NN(C)C)c1cc(Cl)ccc1NS(=O)(=O)C(F)(F)F [Compound 113] | 3 | 66 | –
43 | CC(=NN(C)c1ccccc1)c1ccccc1NS(=O)(=O)C(F)(F)F [Compound 114, N-[2-[1-(N′-methyl-N′-phenyl)hydrazono]ethyl-phenyl]-trifluoromethanesulfonamide] | – | – | C. felis Mortality (%) 8 h: 56%; C. felis Mortality (%) 24 h: 86%
44 | CC(=NN(C)c1ccccc1)c1cccc(Cl)c1NS(=O)(=O)C(F)(F)F [Compound 115] | 10 | 63 | –
45 | CN(N=C(c1cc(Cl)ccc1NS(=O)(=O)C(F)(F)F)C1CCCCC1)c1ccccc1 [Compound 119] | 7 | 14 | –
46 | O=S(=O)(Nc1ccc(Cl)cc1C(=NNc1ccc(Cl)cc1)c1ccccc1)C(F)(F)F [Compound 121] | 12 | 41 | –
